Assay results reported in patent publication US10526389B2, “Peptides and combinations of peptides for use in immunotherapy against lung cancer, including NSCLC and other cancers” (Immatics Biotechnologies GmbH, priority 2015, dated 2020).

Experiments:
MHC class I = test: MHC binding assay (UV-ligand exchange, ELISA); set-up: species or system human; conditions: yield of UV-ligand exchange reaction
Description: Candidate peptides for T cell based therapies according to the present invention were further tested for their MHC binding capacity (affinity). The individual peptide-MHC complexes were produced by UV-ligand exchange, where a UV-sensitive peptide is cleaved upon UV-irradiation, and exchanged with the peptide of interest as analyzed. Only peptide candidates that can effectively bind and stabilize the peptide-receptive MHC molecules prevent dissociation of the MHC complexes. To determine the yield of the exchange reaction, an ELISA was performed based on the detection of the light chain (62m) of stabilized MHC complexes. The assay was performed as generally described in Rodenko et al (Rodenko et al., 2006).
96 well MAXISorp plates (NUNC) were coated over night with 2 ug/ml streptavidin in PBS at room temperature, washed 4× and blocked for 1 h at 37° C. in 2% BSA containing blocking buffer. Refolded HLA-A*02:01/MLA-001 monomers served as standards, covering the range of 15-500 ng/ml. Peptide-MHC monomers of the UV-exchange reaction were diluted 100 fold in blocking buffer. Samples were incubated for 1h at 37° C., washed four times, incubated with 2 ug/ml HRP conjugated anti-62m for 1h at 37° C., washed again and detected with TMB solution that is stopped with […]. Absorption was measured at 450 nm. Candidate peptides that show a high exchange yield (preferably higher than 50%, most preferred higher than 75%) are generally preferred for a generation and production of antibodies or fragments thereof, and/or T cell receptors or fragments thereof, as they show sufficient avidity to the MHC molecules and prevent dissociation of the MHC complexes.

CD4+ T cells [1] = test: HLA class II T-cell proliferation assay (ProImmune, CFSE); type: cell-based, human; conditions: for Number of positive donors: 21 donor samples, positive = over 0.02% stimulation above background; for Number of positive donors / Strength of response: mean in % above the background: 5 μM peptide; for Strength of response: mean in % above the background: CD4+ T-cell proliferation (CFSE)
Description: The experiments as follows summarize the results of T-cell Proliferation Assays of selected MHC class II TUMAPs. Nine of 10 tested peptide antigens tested positive for immunogenicity. […] Individual peptide antigens stimulated the CD4+ T-cell proliferation in up to 6 donors. […] Thus, it can be concluded that the newly tested peptides also have a high potential to induce T-cell responses in vaccine trials.
In order to characterize selected peptides for their potential especially as vaccine candidates, their in vitro immunogenicity was determined by analysis of T-cell proliferation using a commercial T-cell Proliferation Assay from the company ProImmune.
Healthy donor CD8-depleted blood cells samples were tested with the selected peptides. The peptides that induce the proliferation of CD4+ T cells can potentially result in the development of a helper T-cell immune response, and therefore are considered to be immunogenic. The proliferation of CD4+ T cells was determined using carboxyfluorescein succinimidyl ester (CFSE) labelling. In proliferating cells, CFSE is distributed evenly to dividing cells. Thus, the proliferation can be measured as a decrease in CFSE fluorescence in the cells as analyzed.
Peripheral blood mononuclear cell (PBMC) samples from healthy human donors were selected from the ProImmune cell bank based on HLA-DRB1 allele expression. CD8^+ T-cells were depleted from donor blood samples prior to use to avoid a false-positive response. The remaining CD4^+ T cells were labelled with CFSE and subsequently incubated with 5 μM of each selected peptide. Each peptide was tested in six replicated wells. The background was measured on each plate in six unstimulated control wells.
After an incubation period of 7 days the cells were co-stained with anti-CD4 antibody and analyzed by flow cytometry. The degree of proliferation was determined by measuring a reduction in CFSE intensity.
The evaluation of flow cytometric data was performed using FlowJo Software (Tree Star, Inc.). The results of flow cytometric analysis were expressed as the ratio of the CD4^+ dim population to the total CD4^+ population. The degree of proliferation was expressed as percentage of stimulation above background, i.e. proportion of antigen stimulated CD4^+ CFSE dim cells minus the proportion of CD4^+ CFSE dim cells from unstimulated control wells. For each sample, a mean and the corresponding standard error of the mean (SEM) of the six replicates were calculated.
Donors were chosen by HLA-DRB1 allele expression. The other two HLA class II loci (DQ and DP) have not been included into the analysis. The interesting DRB1 alleles were selected according to the frequencies of predicted peptide binding based on […] algorithm (Rammensee et al., 1999). For HLA-DR, binding was defined by a […] binding prediction score equal or greater than 18. This threshold score for binding was defined based on the analysis of binding scores of known published promiscuous HLA-DR ligands (Table 24).
All DRB1 alleles with binding frequency over 20% over all selected peptides were requested to be included into the donor panel) by ProImmune. 4 other rare DRB1 alleles (DRB1*10:01, DRB1*16:01, DRB1*08:01, and DRB1*13:03) were requested additionally.
The antigen-stimulated proliferation of CD4^+ T cells was considered as an indicator of in vitro immunogenicity and was investigated in a commercially available T-cell Proliferation Assay from ProImmune. The degree of antigen-stimulated CD4^+ T-cell proliferation was expressed as a percentage of stimulation above background. A response over 0.02% stimulation above background with SEM=2 (i.e. values two standard errors greater than background) was considered to be positive.

CD4+ T cells [2] = conditions: 19 evaluable patients, prostate cancer-specific peptide vaccine (Feyerabend 2009; Widenmeyer 2008); cited from earlier work
CD4 T cells = test: In vivo immunogenicity in vaccinated patients, intracellular cytokine staining (ICS) of CD4 T cells; set-up: species or system human; conditions: IMA950 peptides, 16 patients, study IMA950-101
Method: The T-cell proliferation analysis included 5 peptides with known in vivo immunogenicity as positive controls. The in vivo immunogenicity of these peptides was determined in blood samples of patients vaccinated with these peptides in clinical trials using intracellular cytokine staining (ICS) of CD4 T cells.
In principle, ICS assays analyze the quality of specific T cells in terms of effector functions. Therefore the peripheral mononuclear cells (PBMCs) were re-stimulated in vitro with the peptide of interest, a reference peptide and a negative control (here MOCK). Following the re-stimulated cells were stained for IFN-gamma, TNF-alpha, IL-2 and IL-10 production, as well as expression of the co-stimulatory molecule CD154. The counting of stained cells was performed on a flow cytometer (FIG. 5).

Substance	Number of positive donors (CD4+ T cells [1]; 7 days)	Strength of response: mean in % above the background (CD4+ T cells [1]; 7 days) [%]	further results
31 (SYLDKVRAL; listed as Homo sapiens) [compound 31]			Peptide exchange (MHC class I binding score) (MHC class I): +++ (50%-75% = +++)
45 (KFLESKGYEF; listed as Homo sapiens) [compound 45]			Peptide exchange (MHC class I binding score) (MHC class I): +++ (50%-75% = +++)
51 (NYLLESPHRF; listed as Homo sapiens) [compound 51]			Peptide exchange (MHC class I binding score) (MHC class I): +++ (50%-75% = +++)
55 (IYPVKYTQTF; listed as Homo sapiens) [compound 55]			Peptide exchange (MHC class I binding score) (MHC class I): +++ (50%-75% = +++)
60 (SYPAKLSFI; listed as Homo sapiens) [compound 60]			Peptide exchange (MHC class I binding score) (MHC class I): +++ (50%-75% = +++)
80 (AYLKEVEQL; listed as Homo sapiens) [compound 80]			Peptide exchange (MHC class I binding score) (MHC class I): +++ (50%-75% = +++)
BIR-002: IMA950 class II peptide, positive control with known in vivo immunogenicity (TLGEFLKLDRERAKN; listed as Homo sapiens) [reference compound]	3	0.24	strength of stimulation response on average, above the background (CD4+ T cells [1]; CD4+ CFSE dim cells minus unstimulated control): 0.24%; patients mounting a strong CD4+ T-cell response (CD4+ T cells [2]): 84%; immune response by vaccination (ICS) (CD4 T cells): 100%
CEA-006: IMA910 class II peptide, positive control with known in vivo immunogenicity (SPQYSWRINGIPQQHT; listed as Homo sapiens) [reference compound]	1	0.20	
COL1A2-001 (NKPSRLPFLDIAPLDIGGAD; listed as Homo sapiens)	2	0.48	
COL5A2-001 (VARLPIIDLAPVDVGGTD; listed as Homo sapiens)	2	0.21	
COL11A1-001 (EGDIQQFLITGDPKAAYDY; listed as Homo sapiens)	5	0.19	
FN1-002: selected HLA class II peptide antigen of the T-cell proliferation assay; probably the FN1 HLA-DR peptide SEQ ID No. 93 (SRPQAPITGYRIVYSPSV; listed as Homo sapiens)			tested positive for immunogenicity (antigen-stimulated CD4+ T-cell proliferation) (CD4+ T cells [1]; positive: >0.02% stimulation above background, 5 uM peptide, 7 days): exception
IGF2BP3-002 (KLYIGNLSENAAPS; listed as Homo sapiens)	3	0.40	
ITGB6-001 (NPVSQVEILKNKPLSVG; listed as Homo sapiens)	6	0.23	
LAMC2-003 (DAVQMVITEAQKVDTR; listed as Homo sapiens)	3	0.27	
LAMP3-002 (IQLIVQDKESVFSPR; listed as Homo sapiens)	5	0.25	
MET-005: IMA950 class II peptide, positive control with known in vivo immunogenicity (TFSYVDPVITSISPKYG; listed as Homo sapiens) [reference compound]	4	0.31	immune response by vaccination (ICS) (CD4 T cells): 100%
MMP12-007 (LSADDIRGIQSLYGDPK; listed as Homo sapiens)	2	0.28	
MMP-001: IMA910 class II peptide, positive control with known in vivo immunogenicity (SQDDIKGIQKLYGKRS; listed as Homo sapiens) [reference compound]	2	0.09	
POSTN-002 (TNGVIHVVDKLLYPADT; listed as Homo sapiens)	2	0.39	
TGFBI-004: IMA910 class II peptide, positive control with known in vivo immunogenicity (TPPIDAHTRNLLRNH; listed as Homo sapiens) [reference compound]	2	0.19	
